Patent US20120040976A1, “SMALL MOLECULE IMMUNOMODULATORS FOR ALZHEIMER'S DISEASE” (HUMAN BIOMOLECULAR RESEARCH INSTITUTE, priority 2008, published 2012)

What was measured:
MGAT3 = MGAT3 transcription ratio, AD patient / control PBMCs (qPCR); assay type: cell-based, human; set-up: key: Dash (−) indicates minimal effect; (+) indicates a ratio of 1.0-1.5; (++) indicates a ratio of 1.5-2.0; (+++ to ++++) indicates a ratio of 2.0 and above; (+++ to ++++) indicates a ratio of 2.0 and above; settings: Aβ stimulation
Protocol: qPCR reactions of cultured monocyte cDNAs. One μL total cellular cDNA per reaction is used in triplicate reactions for each test gene, and for each culture treatment. SYBR-Green reactions were run on a Continuous Fluorescence real-time thermocycler and analyzed. Cycle threshold (Ct) values are recorded for each replicate reaction, and are then averaged and normalized against mean Ct values from one or more control genes. Fold-expression differences relative to untreated cells are determined using the 2^−ΔΔCt method as previously described. Data from the curcumin concentration range are plotted in order to determine EC50 values (concentrations producing one-half maximal stimulant activity), which are used for comparisons of potency between different compounds. Data are also evaluated for each gene with regard to sensitivity, maximally effective concentration of curcuminoid, response to Aβ, and overall magnitude of fold-expression changes.
MGAT3 and/or TLR transcription were tested by qPCR in human monocyte cells treated with curcuminoids and compared the results to those treated with vehicle (Table 7). As discussed above, activation or up-regulation of macrophage MGAT3 or TLR's results in many functional outcomes, including the enhancement of […] and removal of Aβ, increased apoptosis, secretion of inflammatory cytokines, and other anti-AD antimicrobial activities. […] Thus, the ratio of MGAT3 or TLR transcription upon Aβ stimulation of human monocytes versus vehicle treatment provides an indicator and sensitive method to test the in vitro efficacy of drug candidates. […] The relative biological activity of the curcumin analogs in AD patient and control cells was ascertained in the in vitro Aβ assay described above (see Example 2).

[1] = Metabolic stability in human S9 fraction; assay type: in vitro ADME; settings: read-out: Half life, t1/2 S9
[2] = Metabolic stability in human liver microsomes; assay type: in vitro ADME; settings: human, read-out: Half life, t1/2 HLM
[3] = Chemical stability (H2O, pH 7.4); assay type: physicochemical

half-life [1] | half-life [2] | SMILES | Relative ratio of MGAT3 transcription in AD patient / control PBMC's (MGAT3) | also measured
10.9 min | 9 min | COc1ccc(/C=C/C(=O)/C=C(O)/C=C/c2ccc(OC)cc2)cc1 [Compound 16, 5-Hydroxy-1,7-bis-(4-methoxy-phenyl)-hepta-1,4,6-trien-3-one] | − | 
6.6 min | 13.3 min | O=C(/C=C(O)/C=C/c1cccc(O)c1)/C=C/c1cccc(O)c1 [Compound 19, 5-Hydroxy-1,7-bis-(3-hydroxyphenyl)-hepta-1,4,6-trien-3-one] | + ((+) indicates a ratio of 1.0-1.5) | half-life ([3]; water (aqueous solution), pH 7.4, read-out: Chemical stability t1/2 pH 7.4 (converted)): 66.2 min; half-life ([3]; water, H2O, read-out: Chemical stability t1/2 H2O (converted)): 22.8 min
6.6 min | 5 min | COc1ccc(/C=C/C(=O)/C=C(O)/C=C/c2ccc(OC)c(O)c2)cc1O [Compound 21, 5-Hydroxy-1,7-bis-(3-hydroxy-4-methoxyphenyl)-hepta-1,4,6-trien-3-one] | + ((+) indicates a ratio of 1.0-1.5) | 
2.4 min | 31.5 min | COc1cc(O)ccc1/C=C/C(=O)/C=C(O)/C=C/c1ccc(O)cc1OC [Compound 22, 5-Hydroxy-1,7-bis-(4-hydroxy-2-methoxyphenyl)-hepta-1,4,6-trien-3-one] | ++ ((++) indicates a ratio of 1.5-2.0) | 
75.4 min | 97.1 min | CSc1ccc(/C=C/C(=O)/C=C(O)/C=C/c2ccc(SC)cc2)cc1 [Compound 29, 1,7-bis(4-Methylthiophenyl)-5-hydroxyhepta-1,4,6-trien-3-one] | ++++ ((+++ to ++++) indicates a ratio of 2.0 and above) | 

Further lines, the molecule ahead of its results:

SMILES | half-life [1] | half-life [2] | Relative ratio of MGAT3 transcription in AD patient / control PBMC's (MGAT3) | also measured
CC/C(C(=O)/C=C/c1ccc(N(C)C)cc1)=C(O)\C=C\c1ccc(N(C)C)cc1 [Compound 9, 1,7-bis(4-Dimethylaminophenyl)-4-ethyl-hepta-1,6-diene-3,5-dione] |  |  |  | IC50 (Anti-oxidant activity): 55.3 µM
COc1ccc(F)cc1/C=C/C(O)=C1\CCC/C(=C\c2cc(F)ccc2OC)C1=O [Compound 11] |  |  | + ((+) indicates a ratio of 1.0-1.5) | IC50 (Anti-oxidant activity): > 250 µM
CC/C(C(=O)/C=C/c1ccc(N(C)C)cc1OC)=C(O)\C=C\c1ccc(N(C)C)cc1OC [Compound 13, 1,7-Bis(4-(dimethylamino)-2-methoxyphenyl)-4-ethyl-hepta-1,6-diene-3,5-dione] |  |  |  | IC50 (Anti-oxidant activity): 67.4 µM
O=C1C(=Cc2ccc(O)cc2)COCC1=Cc1ccc(O)cc1 [Compound 15, 3,5-bis(4-Hydroxybenzylidene)dihydro-2H-pyran-4(3H)-one] |  |  |  | IC50 (Anti-oxidant activity): > 250 µM
CC(=O)Oc1ccc(/C=C/C(=O)/C=C(O)/C=C/c2ccc(OC(C)=O)cc2)cc1 [Compound 17, Acetic acid 4-[7-(4-acetoxy-phenyl)-5-hydroxy-3-oxo-hepta-1,4,6-trienyl]-phenyl ester] |  |  | − | 
CC(C)(C)C(=O)Oc1ccc(/C=C/C(=O)/C=C(O)/C=C/c2ccc(OC(=O)C(C)(C)C)cc2)cc1 [Compound 18, 2,2-Dimethyl-propionic acid 4-{7-[4-(2,2-dimethyl-propionyloxy)-phenyl]-3,5-dioxo-hepta-1,6-dienyl}-phenyl ester] |  |  | − | 
O=C(/C=C(O)/C=C/c1ccc(O)c(Cl)c1)/C=C/c1ccc(O)c(Cl)c1 [Compound 24, 1,7-bis-(3-Chloro-4-hydroxyphenyl)-5-Hydroxy-hepta-1,4,6-trien-3-one] |  |  | − | 
O=C(/C=C(O)/C=C/c1ccccc1)/C=C/c1ccccc1 [Compound 27, 5-Hydroxy-1,7-diphenylhepta-1,4,6-trien-3-one] |  |  | + ((+) indicates a ratio of 1.0-1.5) | 
Cc1ccc(/C=C/C(=O)/C=C(O)/C=C/c2ccc(C)cc2)cc1 [Compound 28, 5-Hydroxy-1,7-ditolylhepta-1,4,6-trien-3-one] |  |  | ++ ((++) indicates a ratio of 1.5-2.0) | 
